The test has as its target wild-type and mutant CD3 binding domains harbored within TROP2 TCE constructs. As to the kind of experiment: ELISA binding of peptide masks to wild-type and mutated TROP2 TCEs. Particulars: captured biotinylated peptide or CD3-biotin.
Where [1] appears, read: read-out: TCE-3 (3075) (R100A) EC50, binding of TCE-3, anti-CD3 R100A.
Where [2] appears, read: read-out: TCE-4 (3076) (H101A) EC50, binding of TCE-4, anti-CD3 H101A.
Setting [3] is: read-out: TCE-7 (3079) (F104A) EC50, binding of TCE-7, anti-CD3 F104A.
The mark [4] stands for this setting: read-out: TCE-13 (3085) (S110A) EC50, binding of TCE-13, anti-CD3 S110A.
The mark [5] stands for this setting: read-out: TCE-14 (3086) (Y111A) EC50, binding of TCE-14, anti-CD3 Y111A.
The mark [6] stands for this setting: read-out: TCE-15 (3087) (W112A) EC50, binding of TCE-15, anti-CD3 W112A.
The mark [7] stands for this setting: read-out: TCE-19 (3091) (W233A) EC50, binding of TCE-19, anti-CD3 W233A.
Setting [8] is: read-out: TCE-24 (3096) (W238A) EC50, binding of TCE-24, anti-CD3 W238A.
The mark [9] stands for this setting: read-out: TCE-26 (3098) (F240A) EC50, binding of TCE-26, anti-CD3 F240A.
[10] abbreviates: read-out: TCE-6 (3078) (N103A) EC50, binding of TCE-6, anti-CD3 N103A.

Read-outs that look alike come from different tables or passages of the source.

Method: Binding was measured in a standard ELISA format. […] Bound TCEs were detected using a standard horse radish peroxidase conjugate secondary antibody. The ELISA signal was plotted versus the log-scale concentration of TCE. The concentrations of TCE required to observe half maximal binding signal (EC50s) were calculated using Graphpad Prism software.

Regarding `CC(C)C[C@@H]1NC(=O)[C@@H](NC(=O)[C@H](C)NC(=O)[C@H](CO)NC(=O)CN)CSSC[C@@H](C(=O)N2CCC[C@H]2C(=O)N[C@@H](Cc2ccc(O)cc2)C(=O)O)NC(=O)[C@H](C(C)C)NC(=O)[C@H](CCC(=O)O)NC(=O)[C@H](Cc2c[nH]c3ccccc23)NC(=O)[C@H](CCC(=O)O)NC(=O)[C@@H]2CCCN2C(=O)CNC1=O` [Peptide-11], the EC50 was 0.76 nM under setting [1]; 1.05 nM under setting [2]; 0.88 nM under setting [3]; 3.82 nM under setting [4]; 95.6 nM under setting [5]; 38.2 nM under setting [6]. For the same compound, the EC50 reads like this: under setting [7], 6.26 nM; under setting [8], 7.08 nM; under setting [9], 9.2 nM.
With `CC(C)C[C@@H]1NC(=O)[C@@H](NC(=O)[C@H](CCC(N)=O)NC(=O)[C@H](CO)NC(=O)[C@H](C)N)CSSC[C@@H](C(=O)N2CCC[C@H]2C(=O)N[C@@H](Cc2ccc(O)cc2)C(=O)O)NC(=O)[C@H](C(C)C)NC(=O)[C@H](CCC(=O)O)NC(=O)[C@H](Cc2c[nH]c3ccccc23)NC(=O)[C@H](CCC(=O)O)NC(=O)[C@@H]2CCCN2C(=O)CNC1=O` [Peptide-10], the EC50 reads like this: under setting [1], 0.68 nM; under setting [2], 0.83 nM; under setting [10], 0.36 nM; under setting [3], 0.66 nM; under setting [4], 3.46 nM; under setting [5], 64.2 nM. For the same compound, the EC50 under setting [6] is 23.4 nM, the EC50 under setting [7] came to 5.47 nM, the EC50 under setting [8] amounted to 5.33 nM and the EC50 under setting [9] amounted to 5.9 nM.
Regarding `CC(C)C[C@@H]1NC(=O)[C@@H](NC(=O)[C@H](CCC(N)=O)NC(=O)[C@H](CO)NC(=O)CN)CSSC[C@@H](C(=O)N2CCC[C@H]2C(=O)N[C@@H](Cc2ccc(O)cc2)C(=O)O)NC(=O)[C@H](C(C)C)NC(=O)[C@H](CCC(=O)O)NC(=O)[C@H](Cc2c[nH]c3ccccc23)NC(=O)[C@H](CCC(=O)O)NC(=O)[C@@H]2CCCN2C(=O)CNC1=O` [Peptide-2], the EC50 amounted to 0.58 nM under setting [1]; 0.63 nM under setting [3]; 3.65 nM under setting [4]; 49.1 nM under setting [5]; 26.4 nM under setting [6]; 6.28 nM under setting [7]. In addition, the EC50 under setting [8] is 6.34 nM and the EC50 under setting [9] was 8.02 nM.
`CSCC[C@H](NC(=O)[C@@H]1CSSC[C@H](NC(=O)[C@H](Cc2ccc(O)cc2)NC(=O)[C@H](C)N)C(=O)NCC(=O)N2CCC[C@H]2C(=O)N[C@@H](CCC(=O)O)C(=O)N[C@@H](Cc2ccccc2)C(=O)N[C@@H](CC(=O)O)C(=O)N[C@@H](CCC(=O)O)C(=O)N[C@@H](CO)C(=O)N[C@@H](C(C)C)C(=O)NCC(=O)N1)C(=O)O` [Peptide-8]: the EC50 runs as follows: under setting [1], 1.85 nM; under setting [2], 1.36 nM; under setting [4], 0.76 nM; under setting [5], 76.9 nM; under setting [6], 11.2 nM; under setting [7], 6.43 nM. Moreover, the EC50 is 5.66 nM under setting [8] and 5.78 nM under setting [9].
On to `CC(C)C[C@@H]1NC(=O)[C@H](CC(=O)O)NC(=O)[C@H](C(C)C)NC(=O)[C@H](CC(C)C)NC(=O)[C@@H](NC(=O)[C@H](CCC(=O)O)NC(=O)[C@@H](N)CO)CSSC[C@@H](C(=O)N[C@@H](Cc2ccc(O)cc2)C(=O)N[C@@H](Cc2c[nH]c3ccccc23)C(=O)O)NC(=O)[C@@H]2CCCN2C(=O)[C@H](CC(=O)O)NC(=O)[C@H](CO)NC(=O)[C@H](CCC(N)=O)NC1=O` [Peptide-5], for which the EC50 worked out at 0.3 nM (read-out: TCE-1 (2340) (wt) EC50, binding of TCE-1, wild-type anti-CD3); 8.73 nM under setting [1]; 6.94 nM under setting [2]; 1.69 nM under setting [10]; 1.93 nM under setting [3]; 0.95 nM under setting [4]. In addition, the EC50 by setting is: under setting [5], 572 nM; under setting [6], 48.2 nM; under setting [7], 0.35 nM; under setting [8], 0.29 nM; under setting [9], 0.76 nM; (read-out: TCE-27 (3099) EC50, binding of TCE-27) 0.31 nM.
As to `CSCC[C@H](NC(=O)[C@@H]1CSSC[C@H](NC(=O)[C@H](Cc2ccc(O)cc2)NC(=O)[C@@H](N)C(C)C)C(=O)NCC(=O)N2CCC[C@H]2C(=O)N[C@@H](CCC(=O)O)C(=O)N[C@@H](Cc2ccccc2)C(=O)N[C@@H](CC(=O)O)C(=O)N[C@@H](CCC(=O)O)C(=O)N[C@@H](CO)C(=O)N[C@@H](C(C)C)C(=O)NCC(=O)N1)C(=O)O` [Peptide-3], the EC50 runs as follows: under setting [1], 1.76 nM; under setting [10], 0.2 nM; under setting [4], 0.66 nM; under setting [5], 77.7 nM; under setting [6], 10.5 nM; under setting [7], 6.46 nM. For the same compound, the EC50 is, setting by setting: under setting [8], 5.96 nM; under setting [9], 5.78 nM; (read-out: TCE-28 (3100) EC50, binding of TCE-28) 0.41 nM.
